Test results taken from paper PMC3062375 (Biochemistry, 2011).
Non-standard residues stand in square brackets, D forms with d. Residues, ends and D or L forms follow the SMILES beside them. No end group written: not given here. pS = N[C@@H](COP(=O)(O)O)C(=O)O

Target: T1, S100A11 protein (Sus scrofa, UniProt P31950)
T1 sequence (P31950 1-99): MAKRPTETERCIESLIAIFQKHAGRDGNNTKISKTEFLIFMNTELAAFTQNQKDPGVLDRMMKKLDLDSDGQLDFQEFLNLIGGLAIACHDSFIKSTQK
Experiment: Tryptophan fluorescence titration of peptide binding to S100A11
Set-up: species or system porcine

**Q.** With CC[C@H](C)[C@H](NC(=O)[C@H](Cc1ccccc1)NC(=O)[C@H](Cc1c[nH]c2ccccc12)NC(=O)[C@H](C)NC(=O)[C@H](CCC(N)=O)NC(=O)[C@H](CCCCN)NC(=O)[C@H](CC(C)C)NC(=O)[C@H](Cc1ccccc1)NC(=O)[C@H](CCC(=O)O)NC(=O)[C@H](COP(=O)(O)O)NC(=O)[C@@H](NC(=O)[C@H](CCSC)NC(=O)[C@H](C)NC(C)=O)C(C)C)C(=O)N[C@@H](CCC(=O)O)C(=O)N[C@@H](CC(N)=O)C(=O)N[C@@H](CCC(=O)O)C(=O)N[C@@H](CCC(=O)O)C(=O)N[C@@H](CCC(N)=O)C(=O)O [Ac1−18P, Ac-AMV[pSer]EFLKQAWFIENEEQ] (Ac-AMV[pS]EFLKQAWFIENEEQ-OH) as the compound, how does the Kd read?
**A.** 56.8 ± 1 µM

**Q.** For “Ac-AMVSEFLKQAWFIENEEQ [Ac1−18, Ac-AMVSEFLKQAWFIENEEQ]”, which Kd is on record?
**A.** 2.1 ± 0.2 µM
